Target: T1, rmC1 (recombinant murine 18.5-kDa myelin basic protein, C1 charge component); rmC8 is its six-fold Gln variant (Mus musculus, UniProt P04370)
T1 construct: gene Mbp
Test: fluorescence, FRET from Trp to mant (ex […] nm, em […] nm)
Type: binding
Conditions: 0.25 µM rmC1, 0.5-12.5 µM nucleotide, 10 mM HEPES pH 7.5; labelled compound

T1 sequence (P04370 1-169 isoform P04370-5 limits assumed): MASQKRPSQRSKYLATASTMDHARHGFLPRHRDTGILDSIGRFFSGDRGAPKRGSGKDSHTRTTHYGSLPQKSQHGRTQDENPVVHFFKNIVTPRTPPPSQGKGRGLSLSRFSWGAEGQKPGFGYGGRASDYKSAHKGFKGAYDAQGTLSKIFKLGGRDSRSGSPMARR

`CNc1ccccc1C(=O)O[C@H]1[C@@H](O)[C@H](n2cnc3c(N)ncnc32)O[C@@H]1COP(=O)(O)OP(=O)(O)OP(=O)(O)O` [mant-ATP] was tested, and the “fluorescence, FRET from Trp to mant (ex 280 nm, em 448 nm)” value was “while both mant-ATP and mant-GTP bound to rmC1, mant-AMP did not”.

From article PMC3102069, “Charge Isomers of Myelin Basic Protein: Structure and Interactions with Membranes, Nucleotide Analogues, and Calmodulin” (PLoS ONE, 2011)
